Laboratory results reported in article PMC7226045, “Ensartinib (X-396) Effectively Modulates Pharmacokinetic Resistance Mediated by ABCB1 and ABCG2 Drug Efflux Transporters and CYP3A4 Biotransformation Enzyme” (Cancers, 2020).

Experiments:
CYP3A4 = CYP3A4 (Homo sapiens, UniProt P08684); assay: Vivid CYP screening kit, recombinant CYP3A4; type: biochemical; design: purchased Thermo Fisher Scientific; host or cells: insect microsomal fractions; settings: recombinant enzyme, 15 min incubation, absolute IC50; read-out: CYP3A4 inhibition IC50
Description: (§1) CYP inhibitory assay was performed as described previously. Experiments were performed with commercial Vivid CYP screening kits containing insect microsomal fractions enriched with a specific human CYP isoform, human CYP reductase, and in some cases, human cytochrome b5. The potential inhibitory activity of ensartinib toward CYP1A2, CYP2B6, CYP2C8, CYP2C9, CYP2C19, CYP2D6, CYP3A4, and CYP3A5 (i.e., all CYP isoforms that drug regulatory authorities recommend for testing of inhibition by new molecular entities) was then examined. Experiments were performed using a kinetic mode in black 96-well plates according to the manufacturer´s instructions. Briefly, 5-point serial dilutions of ensartinib or the model inhibitor recommended by the manufacturer in buffer were transferred into the wells, then a master mix consisting of a CYP isoenzyme with an NADPH regeneration system in buffer was added. After a 10 min pre-incubation, the reaction was initiated by adding a mixture of NADP^+ and the appropriate Vivid substrate, after which fluorescence was measured at 1 min intervals for 60 min using an Infinite M200 Pro microplate reader (Tecan, Männedorf, Switzerland). The enzyme concentration and incubation interval used for data evaluation (15 min) placed the systems within the linear regions of the appropriate reaction velocity curves. […]

ABCB1, ABCG2, ABCC1 mRNA = assay: Gene induction study (qRT-PCR), ABC transporter mRNA; type: cell-based, human; settings: 0.5 µM ensartinib; 24 and 48 h; Caco-2, LS174T, A549, NCI-H1299 cells
Description: Gene induction studies were performed with minor modifications as described recently. Although all gene induction studies involved the use of quantitative real-time reverse transcription PCR (qRT-PCR) to measure mRNA levels, the methods used for specific cell lines varied considerably. Therefore, they are described separately.
For transporter-oriented studies, A549 (24 × 10^4 cells/well), NCI-H1299 (18 × 10^4 cells/well), Caco-2 (50 × 10^4 cells/well), or LS174T (100 × 10^4 cells/well) cells were plated in 12-well plates 24 h before the experiment. Subsequently, the medium was replaced with fresh medium containing 0.5 µM ensartinib, 25 µM rifampicin, or 0.1% DMSO (vehicle control). […] The RNA yield was measured using a NanoDrop ND-1000 spectrophotometer (American Laboratory Trading, East Lyme, CT, USA) while RNA quality and integrity were verified by agarose gel electrophoresis. […] The expression of ABCB1, ABCG2 and ABCC1 was assessed using gb Easy PCR Master Mix and TaqMan qRT-PCR systems in 384-well plates according to the manufacturer´s instructions, amplifying 20 ng of cDNA per reaction. qRT-PCR was performed using QuantStudio 6 (Life Technologies, Carlsbad, CA, USA) with predefined thermal cycling conditions (95 °C for 3 min then 40 repeats of a cycle of 95 °C for 10 s and 60 °C for 20 s). […]

A431-parent cells = assay: MTT proliferation assay, A431-parent; type: cell-based; settings: Homo sapiens, 48 h, read-out: IC50, sensitivity to ensartinib
Description: (§2) MTT proliferation assay was performed as described previously.

MDCKII-ABCC1 cells = assay: MTT proliferation assay, MDCKII-ABCC1; type: cell-based, canine; settings: Canis lupus familiaris, 48 h, read-out: IC50, sensitivity to ensartinib
Description: as §2

ABCB1 = biological target: T1, ABCB1 (Homo sapiens, UniProt P08183); assay: daunorubicin accumulation assay (flow cytometry) in MDCKII-ABCB1 cells; type: cell-based; settings: 2 µM daunorubicin, 1 h, read-out: IC50, inhibition of ABCB1 (daunorubicin accumulation)
T1 construct: expressed in transfected cells; host or cells: MDCKII-ABCB1 (from Dr. Alfred Schinkel, The Netherlands Cancer Institute)
Description: The flow-cytometric inhibitory assay with daunorubicin and mitoxantrone was performed with minor modifications as described previously. MDCKII-par, MDCKII-ABCB1, MDCKII-ABCG2, and MDCKII-ABCC1 cell lines were seeded at densities of 22.0 × 10^4, 15.0 × 10^4, 25.0 × 10^4, and 22.0 × 10^4 cells/well, respectively, on a 12-well plate and then incubated for 24 h to reach approximately 70–80% confluence. Further steps including cell washing, the preparation of drug/model inhibitor dilutions, and their addition to cells were performed as described above. After the 10 min pre-incubation period, 2 µM daunorubicin (a substrate of ABCB1/ABCC1) or 1 µM mitoxantrone (ABCG2 substrate) were promptly added to all wells other than those containing background samples, then the plate was incubated for 1 h under standard conditions. The plates were subsequently placed on ice, the cells were washed twice with ice-cold 1× PBS, and 10× trypsin without phenol red was added. After complete trypsinization, the cells were vigorously resuspended in ice-cold 1× PBS containing 2% FBS. Samples were then transferred into test-tubes and kept on ice until their fluorescence could be measured using a flow cytometer (BD FACSCanto II, Allschwil, Switzerland). The excitation/emission wavelengths for daunorubicin and mitoxantrone were 490/565 and 640/670 nm, respectively.

CYP2C8 = biological target: T2, CYP2C8 (Homo sapiens, UniProt P10632); assay: Vivid CYP screening kit, recombinant CYP2C8; type: biochemical; settings: recombinant enzyme, 15 min incubation, absolute IC50; read-out: CYP2C8 inhibition IC50
T2 construct: purchased Thermo Fisher Scientific; host or cells: insect microsomal fractions
Description: as §1

MDCKII-parent cells = assay: MTT proliferation / drug combination assay, MDCKII-parent; type: cell-based, canine
Description: as §2

T2 sequence (P10632 whole entry): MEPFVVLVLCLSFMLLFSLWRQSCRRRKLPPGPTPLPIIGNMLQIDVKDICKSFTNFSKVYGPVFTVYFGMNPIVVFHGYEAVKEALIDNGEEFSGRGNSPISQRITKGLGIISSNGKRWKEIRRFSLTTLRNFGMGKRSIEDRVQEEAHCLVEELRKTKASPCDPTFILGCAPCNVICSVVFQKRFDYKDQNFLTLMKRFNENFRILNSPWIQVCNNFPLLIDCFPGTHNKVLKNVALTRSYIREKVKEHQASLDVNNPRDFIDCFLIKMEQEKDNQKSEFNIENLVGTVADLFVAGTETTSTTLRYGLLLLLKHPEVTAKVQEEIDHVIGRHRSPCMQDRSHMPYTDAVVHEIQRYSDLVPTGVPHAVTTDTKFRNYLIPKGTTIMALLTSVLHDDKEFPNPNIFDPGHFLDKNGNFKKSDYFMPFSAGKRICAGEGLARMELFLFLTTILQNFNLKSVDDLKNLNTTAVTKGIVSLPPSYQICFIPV
CYP3A4, sequence (P08684 2-503 limits assumed): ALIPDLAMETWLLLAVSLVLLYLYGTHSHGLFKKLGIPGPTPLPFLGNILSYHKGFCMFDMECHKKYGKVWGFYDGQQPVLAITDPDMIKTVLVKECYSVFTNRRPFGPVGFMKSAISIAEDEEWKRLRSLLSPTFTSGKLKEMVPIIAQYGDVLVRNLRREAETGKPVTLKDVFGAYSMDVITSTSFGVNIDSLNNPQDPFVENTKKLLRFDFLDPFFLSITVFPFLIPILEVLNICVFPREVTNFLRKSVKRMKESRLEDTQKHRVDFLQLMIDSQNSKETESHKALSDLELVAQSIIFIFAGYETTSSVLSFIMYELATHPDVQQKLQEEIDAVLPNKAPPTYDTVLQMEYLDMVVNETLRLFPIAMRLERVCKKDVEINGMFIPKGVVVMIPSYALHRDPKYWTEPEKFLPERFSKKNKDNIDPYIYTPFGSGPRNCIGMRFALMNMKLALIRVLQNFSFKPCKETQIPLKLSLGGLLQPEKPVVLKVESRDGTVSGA
T1 sequence (P08183 whole entry): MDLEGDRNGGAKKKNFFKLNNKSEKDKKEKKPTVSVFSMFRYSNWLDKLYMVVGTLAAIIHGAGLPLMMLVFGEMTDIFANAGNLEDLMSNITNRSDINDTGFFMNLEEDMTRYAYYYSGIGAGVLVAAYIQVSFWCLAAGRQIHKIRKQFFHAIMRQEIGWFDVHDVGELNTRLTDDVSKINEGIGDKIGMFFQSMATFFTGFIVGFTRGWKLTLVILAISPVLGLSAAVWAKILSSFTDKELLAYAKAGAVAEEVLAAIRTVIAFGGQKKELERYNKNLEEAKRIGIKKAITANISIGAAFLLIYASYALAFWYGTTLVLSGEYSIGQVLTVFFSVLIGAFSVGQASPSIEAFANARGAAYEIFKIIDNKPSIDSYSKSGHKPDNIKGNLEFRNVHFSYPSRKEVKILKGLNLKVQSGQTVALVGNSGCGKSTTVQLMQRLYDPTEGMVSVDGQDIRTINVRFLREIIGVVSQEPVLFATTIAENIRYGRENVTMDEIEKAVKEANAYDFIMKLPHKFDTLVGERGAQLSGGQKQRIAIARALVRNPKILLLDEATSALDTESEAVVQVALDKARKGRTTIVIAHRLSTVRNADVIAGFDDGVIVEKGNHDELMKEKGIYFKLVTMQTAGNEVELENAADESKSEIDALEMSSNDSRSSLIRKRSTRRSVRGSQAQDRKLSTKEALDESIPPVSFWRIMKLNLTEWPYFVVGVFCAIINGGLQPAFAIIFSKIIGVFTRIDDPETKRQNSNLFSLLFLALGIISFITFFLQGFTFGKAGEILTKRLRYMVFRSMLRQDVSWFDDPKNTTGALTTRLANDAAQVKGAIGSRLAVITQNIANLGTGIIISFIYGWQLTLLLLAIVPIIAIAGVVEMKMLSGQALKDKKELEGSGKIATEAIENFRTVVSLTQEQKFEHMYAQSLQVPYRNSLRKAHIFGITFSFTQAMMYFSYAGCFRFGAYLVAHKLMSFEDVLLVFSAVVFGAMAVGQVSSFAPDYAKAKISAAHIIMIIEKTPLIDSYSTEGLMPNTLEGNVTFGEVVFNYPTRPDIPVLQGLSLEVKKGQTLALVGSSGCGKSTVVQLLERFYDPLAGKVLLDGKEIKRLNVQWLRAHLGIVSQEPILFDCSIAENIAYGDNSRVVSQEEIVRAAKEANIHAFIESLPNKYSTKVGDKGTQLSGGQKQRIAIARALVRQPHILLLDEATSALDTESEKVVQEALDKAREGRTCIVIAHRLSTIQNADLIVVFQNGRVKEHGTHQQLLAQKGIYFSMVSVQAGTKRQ

IC50 (CYP3A4): 1.12 µM | IC50 (A431-parent cells): 2.69 µM | IC50 (ABCB1): 4.75 µM | IC50 (CYP2C8): 20.6 µM
SMILES: C[C@@H]1CN(C(=O)c2ccc(NC(=O)c3cc(O[C@H](C)c4c(Cl)ccc(F)c4Cl)c(N)nn3)cc2)C[C@H](C)N1 [ensartinib, Ensartinib]
change in mRNA levels of ABCB1, ABCG2, ABCC1 (ABCB1, ABCG2, ABCC1 mRNA): did not increase or reduce the mRNA levels of ABCB1, ABCG2, or ABCC1 by more than 100% or 50% | IC50 (MDCKII-ABCC1 cells): 21.9 µM | IC50 (MDCKII-parent cells; Canis lupus familiaris, MDCKII-parent, 48 h, MTT, read-out: IC50, sensitivity to ensartinib): 21.8 µM | combination effect (Chou-Talalay combination index) (MDCKII-parent cells; MDCKII parental, 10 µM ensartinib with daunorubicin or mitoxantrone, whole FA range): antagonistic or additive
